Like-named read-outs stand apart in the source and are kept apart here.
Legend:
CD4 T cells (PBMC) [1] = experiment: Ex vivo class II tetramer staining and phenotyping of PBMC from adults; format: cell-based, human (DRB1*0101 healthy adults); conditions: for #Tet+/6.0×10^5 CD4+ T cells: ex vivo fresh PBMC, tetramer of the peptide; for % α4β7(+) CCR9(+) / % α4β7(+) CCR9(−) / % α4β7(−) CCR9(+) / % α4β7(−) CCR9(−): of antigen experienced tetramer+ CD4 T cells; for % Antigen experienced T cells: tetramer+ CD4 T cells, CD62L−CD45RA+/− and CD62L+CD45RA−
CD4 T cells (PBMC) [2] = format: cell-based, human (HLA-DR1 children)

Sequence: RVEYHFLSPYVSRKESP [TRF]
- #Tet+/6.0×10^5 CD4+ T cells (CD4 T cells (PBMC) [1]; HA-02): 8 /6.0×10^5 CD4^+ T cells
- % α4β7(+) CCR9(+) (CD4 T cells (PBMC) [1]; HA-02): 33.3%
- % α4β7(+) CCR9(−) (CD4 T cells (PBMC) [1]; HA-02): 33.3%
- % α4β7(−) CCR9(+) (CD4 T cells (PBMC) [1]; HA-02): 0%
- % α4β7(−) CCR9(−) (CD4 T cells (PBMC) [1]; HA-02): 33.3%
- % Antigen experienced T cells (CD4 T cells (PBMC) [1]; HA-02): 54.5%
- #Tet+/6.0×10^5 CD4+ T cells (CD4 T cells (PBMC) [1]; HA-15): 4 /6.0×10^5 CD4^+ T cells
- % Antigen experienced T cells (CD4 T cells (PBMC) [1]; HA-15): 0%
- #Tet+/6.0×10^5 CD4+ T cells (CD4 T cells (PBMC) [1]; HA-19): 10 /6.0×10^5 CD4^+ T cells
- % α4β7(+) CCR9(+) (CD4 T cells (PBMC) [1]; HA-19): 33.3%
- % α4β7(+) CCR9(−) (CD4 T cells (PBMC) [1]; HA-19): 8.33%
- % α4β7(−) CCR9(+) (CD4 T cells (PBMC) [1]; HA-19): 25%
- % α4β7(−) CCR9(−) (CD4 T cells (PBMC) [1]; HA-19): 33.3%
- % Antigen experienced T cells (CD4 T cells (PBMC) [1]; HA-19): 85.7%
- #Tet+/6.0×10^5 CD4+ T cells (CD4 T cells (PBMC) [1]; HA-23): 8 /6.0×10^5 CD4^+ T cells
- % α4β7(+) CCR9(+) (CD4 T cells (PBMC) [1]; HA-23): 25%
- % α4β7(+) CCR9(−) (CD4 T cells (PBMC) [1]; HA-23): 25%
- % α4β7(−) CCR9(+) (CD4 T cells (PBMC) [1]; HA-23): 0%
- % α4β7(−) CCR9(−) (CD4 T cells (PBMC) [1]; HA-23): 50%
- % Antigen experienced T cells (CD4 T cells (PBMC) [1]; HA-23): 57.1%
- #Tet+/6.0×10^5 CD4+ T cells (CD4 T cells (PBMC) [1]; HA-29): 14 /6.0×10^5 CD4^+ T cells
- % α4β7(+) CCR9(+) (CD4 T cells (PBMC) [1]; HA-29): 50%
- % α4β7(+) CCR9(−) (CD4 T cells (PBMC) [1]; HA-29): 0%
- % α4β7(−) CCR9(+) (CD4 T cells (PBMC) [1]; HA-29): 0%
- % α4β7(−) CCR9(−) (CD4 T cells (PBMC) [1]; HA-29): 50%
- % Antigen experienced T cells (CD4 T cells (PBMC) [1]; HA-29): 50%
- #Tet+/6.0×10^5 CD4+ T cells (CD4 T cells (PBMC) [1]; HA-41): 3 /6.0×10^5 CD4^+ T cells
- % α4β7(+) CCR9(+) (CD4 T cells (PBMC) [1]; HA-41): 0%
- % α4β7(+) CCR9(−) (CD4 T cells (PBMC) [1]; HA-41): 33.3%
- % α4β7(−) CCR9(+) (CD4 T cells (PBMC) [1]; HA-41): 0%
- % α4β7(−) CCR9(−) (CD4 T cells (PBMC) [1]; HA-41): 66.7%
- % Antigen experienced T cells (CD4 T cells (PBMC) [1]; HA-41): 100%
- #Tet+/6.0×10^5 CD4+ T cells (CD4 T cells (PBMC) [1]; HA-51): 98 /6.0×10^5 CD4^+ T cells
- % α4β7(+) CCR9(+) (CD4 T cells (PBMC) [1]; HA-51): 20.7%
- % α4β7(+) CCR9(−) (CD4 T cells (PBMC) [1]; HA-51): 44.8%
- % α4β7(−) CCR9(+) (CD4 T cells (PBMC) [1]; HA-51): 6.9%
- % α4β7(−) CCR9(−) (CD4 T cells (PBMC) [1]; HA-51): 27.6%
- % Antigen experienced T cells (CD4 T cells (PBMC) [1]; HA-51): 36.7%
- #Tet+/6.0×10^5 CD4+ T cells (CD4 T cells (PBMC) [1]; HA-52): 72 /6.0×10^5 CD4^+ T cells
- % α4β7(+) CCR9(+) (CD4 T cells (PBMC) [1]; HA-52): 0%
- % α4β7(+) CCR9(−) (CD4 T cells (PBMC) [1]; HA-52): 66.7%
- % α4β7(−) CCR9(+) (CD4 T cells (PBMC) [1]; HA-52): 0%
- % α4β7(−) CCR9(−) (CD4 T cells (PBMC) [1]; HA-52): 33.3%
- % Antigen experienced T cells (CD4 T cells (PBMC) [1]; HA-52): 27.3%
- Tetramer+ cells with phenotype of antigen-experienced cells (CD4 T cells (PBMC) [2]; both groups of children (vaccinated and placebo), data not shown): 0–30%
- Frequency of tetramer stained antigen experienced CD4 T cells (CD4 T cells (PBMC) [2]; placebo recipient children (n = 3)): <0.0001–0.003%
- Frequency of tetramer stained antigen experienced CD4 T cells (CD4 T cells (PBMC) [2]; vaccinated children (n = 3), two weeks after second dose of RIX4414): <0.0001–0.01%

— PMC3989888 (Virology, 2014)
